Test results reported in patent US8648045B2, “VDAC1 compositions and methods of use thereof for regulating apoptosis” (Ben Gurion University of the Negev Research and Development …, priority 2005, dated 2014).
Ends that are not written are not given here.

Experiments:
[1] = system: K562; type: cell-based
Experimental: (§1) To determine apoptosis, cells were subjected to staining with 100 μg/ml acridine orange (AcOr) and 100 μg/ml ethidium bromide (EtBr) in PBS. Cells were centrifuged at 1500×g for 5 min at room temperature and resuspended in 25 μl complete medium, to which 2 μl of an AcOr/EtBr solution were added. The cells were then visualized by fluorescence microscopy (Olympus IX51) and images were recorded with an Olympus DP70 camera, using a SWB filter. In each independent experiment, in which early and late apoptotic cells were counted, approximately 250 cells were counted for each treatment.
(§2) The effect of the peptides N-ANTP (having the amino acid sequence of SEQ ID NO:73) and ANTP-LP4-trp (having the amino acid sequence of SEQ ID NO:15) on apoptotoc cell death was examined with cancer cells of various trypes. Table 6 below summarizes the cell line examined and concentration of each pepetide that gave 50% apoptotic cell death (IC50, μM).
(§3) All cells were grown in DMEM accept PC3, D-U145, Molt-4, Jurkat, Mec-1, U937 grown in RPMI medium and HUH7 grown in F12/DMEM medium.

[2] = system: AsPC1; type: cell-based
Experimental: as §1, §2, §3

[3] = system: JURKAT; type: cell-based
Experimental: as §1, §2, §3

[4] = system: A549; type: cell-based
Experimental: as §1, §2, §3

[5] = system: SKOV-3; type: cell-based
Experimental: as §1, §2, §3

[6] = system: T3M4; type: cell-based
Experimental: as §1, §2, §3

[7] = system: Hep-G2; type: cell-based
Experimental: as §1, §2, §3

[8] = system: MCF7; type: cell-based
Experimental: as §1, §2, §3

[9] = system: A375; type: cell-based
Experimental: as §1, §2, §3

[10] = system: H358; type: cell-based
Experimental: as §1, §2, §3

[11] = system: HUH7; type: cell-based
Experimental: as §1, §2, §3

[12] = system: MDA-MB-231; type: cell-based
Experimental: as §1, §2, §3

[13] = system: THP-1; type: cell-based
Experimental: as §1, §2, §3

[14] = system: MEC-1 cell line; type: cell-based, human
Experimental: (§4) PBMCs (2×10^6 cells/sample) from CLL patients and healthy donors were treated with various concentrations of the peptide Antp-LP4-trp for 90 minutes. Cells were then gently washed once with PBS and stained with propidium iodide (PI) by adding 2.5 μl (1 mg/ml) and immediately analyzed for cell death. The level of cell death, reflected by the percentage of PI-positive cells, was determined by a flow cytometry analysis.
(§5) Preipheral blood mononuclear cells (PMBC) isolated from pateints having chronic lymphocytic leukemia (CLL) and MEC-1 cell lines (human chronic B-cell leukemia) were incubated for 90 min with Peptide N-ANTP (SEQ ID NO:73) at concentrations of 10-40 μM. Cell death was measured by PI staning and FACS analysis.

[15] = system: PBMCs isolated from CLL patients; type: cell-based, human
Experimental: Peripheral blood mononuclear cells (PBMCs) were isolated from venous blood of patients with chronic lymphocytic leukemia (CLL) by Ficoll-Paque PLUS (GE Healthcare, Israel) density gradient centrifugation. After informed consent, venous blood (10 ml) was drawn from CLL patients satisfying diagnostic criteria for CLL or from normal adult donors. Blood was collected into heparin tubes and diluted 1:1 with balance solution (composed of two stock solutions, A and B, in 1:9 ratio, respectively. Solution A contained: D-glucose 1%, CaCl2 5×10^−5M, MgCl2 9.8×10^−4M, KCl 5.4×10^−3M, Tris 0.145M, pH 7.6. Solution B contained NaCl 0.14M. The balance solution was prepared freshly every week. The diluted blood sample was subsequently carefully layered on Ficoll-Paque Plus (10 ml of diluted blood: 15 ml Ficoll) in 50 ml conical tubes. Tubes were centrifuged at 400×g (with minimal acceleration and deceleration) for 40 minutes at 18-20° C. The mononuclear cells fine layer was transferred to a new centrifuge tube. Cells were washed 3 times with balance solution and re-suspended in a culture medium appropriate to the application.
as §4, §5
In ex vivo experiments, peripheral blood mononuclear cells (PBMCs) isolated from healthy individuals or CLL patients were incubated for 90 min with the indicated concentration of the ANTP-LP4-trp peptide. Cell death was assayed by PI staining and FACS analysis (healthy donors, n=34; CLL donors, n=39).

[16] = system: PBMCs isolated from healthy donors; assay: Cell death, PI staining and FACS; type: cell-based, human; conditions: 90 min, n=34
Experimental: Peripheral blood mononuclear cells (PBMCs) were isolated from venous blood of patients with chronic lymphocytic leukemia (CLL) by Ficoll-Paque PLUS (GE Healthcare, Israel) density gradient centrifugation. After informed consent, venous blood (10 ml) was drawn from CLL patients satisfying diagnostic criteria for CLL or from normal adult donors. […]
as §4, with “analysis. […]” for “analysis.”

[17] = system: MOLT-4; type: cell-based, human
Experimental: as §1, §2, §3

[18] = system: U87; type: cell-based, human
Experimental: as §1, §2, §3

[19] = system: T-Rex; type: cell-based, human
Experimental: as §1, §2, §3

[20] = system: Panc-1; type: cell-based, human
Experimental: as §1, §2, §3

[21] = system: U937; type: cell-based, human
Experimental: as §1, §2, §3

[22] = system: Mec-1; type: cell-based, human
Experimental: as §1, §2, §3

[23] = system: HeLa
Experimental: as §1
The effect of the peptides N-ANTP (having the amino acid sequence of SEQ ID NO:73) and ANTP-LP4-trp (having the amino acid sequence of SEQ ID NO:15) on apoptotoc cell death was examined with cancer cells of various trypes.
as §3

[24] = system: U937, MOLT4 and MEC-1 cells; assay: Cancer cell death by L- or D-amino acid peptide; type: cell-based, human; conditions: average of two experiments
From the text: The results are average of two experiments

[25] = system: PC-3; assay: Apoptosis induction by peptides, IC50; type: cell-based; conditions: PC-3, Prostate adenocarcinoma, Mut-P53, Androg↑
Experimental: as §1, §2, §3

[26] = type: physicochemical
Experimental: The peptides N-ANTP (C-terminus), ANTP-LP4-trp, TAT-LP4-trp and Tf-LP4-trp were synthesized by GL Biochem (Shanghai, China). The N-terminal peptide was water-soluble, while the other peptides were dissolved in DMSO. The concentration of DMSO in control and peptide-containing samples was up to 4%.

[27] = system: PBMCs; type: cell-based, human
Experimental: as §1, §2, §3

Compound	IC50 [1] [nM]	IC50 [2] [nM]	IC50 [3] [nM]	IC50 [4] [nM]	IC50 [5] [nM]	IC50 [6] [nM]	IC50 [7] [nM]	IC50 [8] [nM]	IC50 [9] [nM]	IC50 [10] [nM]	IC50 [11] [nM]	IC50 [12] [nM]	IC50 [13] [nM]	IC50 [14] [nM]	IC50 [15] [nM]	IC50 [17] [nM]	IC50 [18] [nM]	IC50 [19] [nM]	IC50 [20] [nM]	IC50 [21] [nM]	also measured
CC[C@H](C)[C@H](NC(=O)[C@H](CCCCN)NC(=O)[C@@H](NC(=O)[C@H](CCC(N)=O)NC(=O)[C@H](CCCNC(=N)N)NC(=O)[C@@H](N)CCSC)[C@@H](C)CC)C(=O)N[C@@H](Cc1c[nH]c2ccccc12)C(=O)N[C@@H](Cc1ccccc1)C(=O)N[C@@H](CCC(N)=O)C(=O)N[C@@H](CC(N)=O)C(=O)N[C@@H](CCCNC(=N)N)C(=O)N[C@@H](CCCNC(=N)N)C(=O)N[C@@H](CCSC)C(=O)N[C@@H](CCCCN)C(=O)N[C@@H](Cc1c[nH]c2ccccc12)C(=O)N[C@@H](CCCCN)C(=O)N[C@@H](CCCCN)C(=O)N[C@@H](CO)C(=O)N[C@@H](Cc1c[nH]c2ccccc12)C(=O)N[C@H](C(=O)N[C@@H](Cc1c[nH]c2ccccc12)C(=O)N[C@@H](CCC(=O)O)C(=O)N[C@@H](CCCCN)C(=O)N[C@@H](CCCCN)C(=O)N[C@@H](CC(C)C)C(=O)N[C@@H](CCC(=O)O)C(=O)N[C@H](C(=O)N[C@@H](C)C(=O)N[C@H](C(=O)N[C@@H](CC(N)=O)C(=O)N[C@@H](CC(C)C)C(=O)N[C@@H](C)C(=O)N[C@@H](Cc1c[nH]c2ccccc12)C(=O)N[C@H](C(=O)N[C@@H](C)C(=O)NCC(=O)N[C@@H](CC(N)=O)C(=O)N[C@@H](CO)C(=O)N[C@@H](CC(N)=O)C(=O)N[C@@H](CCCCN)C(=O)N[C@@H](Cc1c[nH]c2ccccc12)C(=O)N[C@H](C(=O)N[C@@H](Cc1c[nH]c2ccccc12)C(=O)N[C@@H](CCCCN)C(=O)O)[C@@H](C)O)[C@@H](C)O)C(C)C)[C@@H](C)O)[C@@H](C)O [ANTP-LP4-trp]	260 ± 100	2700 ± 1700	230 ± 100	1500 ± 200	1000 ± 200	500 ± 200	1600 ± 600	1900 ± 40	6400 ± 600	1500 ± 500	600 ± 300	1600 ± 600	300 ± 100	< 2000	200 to 250	760 ± 200	1400 ± 500	6500 ± 900	6400 ± 600	280 ± 100	correlation between relative amount of cancer cells (CD19+/CD5+) and peptide-induced cell death ([15]; 0.375 μM): tight correlation; cell death of CLL-derived PBMCs ([15]; 90 min, CLL donors, n=39): highly effective in inducing cancer cell death; effect on PBMCs isolated from healthy donors [16]: marginal; IC50 [22]: 530 ± 100 nM; IC50 [23]: 900 ± 30 nM; cell-death induction, L- versus D-amino acid peptide [24]: irrespective to the D/L configuration
MAVPPTYADLGKSARDVFTKGYGFGLMRQIKIWFQNRRMKWKK [N-ANTP]	600 ± 400	6100 ± 100	350 ± 500	2700 ± 500	2000 ± 800	1300 ± 400	3600 ± 1300	2500 ± 600	2800 ± 400	2700 ± 200	1300 ± 300	1500 ± 300	530 ± 30	3000 to 4000	3000 to 4000	1100 ± 300	1400 ± 600	5600 ± 900	6200 ± 600	580 ± 200	IC50 [25]: 400 ± 100 nM; solubility [26]: water-soluble; IC50 [27]: 10100 ± 1200 nM; IC50 [22]: 930 ± 100 nM; IC50 [23]: 2700 ± 800 nM
